# Test results: ChEMBL document CHEMBL3507680, “University of Dundee, Gates Library screen for HepG2 cell viability”
# Assay: Human HepG2 cell viability assay in 384 well format
# Format: toxicity, cell-based
# Set-up: dose 125 nL, time 70.5 hour; concentration not given beside the values
# Settings: HepG2 cells, read-out: Inhibition
row,SMILES,cytotoxicity at 70.5 h [%]
1,C=Cn1cc(CN2CCN(CC3(c4ccccc4)CC3)CC2)c(C)n1,-2.78
2,Cc1csc2c(C3CCN(CCOc4ccccc4F)CC3)nc(C)n12,18.2
3,Cc1cc(-c2cc(N)c(=O)n(CC(=O)NC3CCCCC3)n2)c(C)o1,-15.5
4,Cn1ccnc1C(O)c1ccccc1N1CCN(Cc2ccsc2)CC1 (stereo unspecified),-5.94
5,CN1C[C@@H](C(=O)NC(C)(C)C)[C@@]2(COc3ccc(F)cc3C2=O)C1,-1.75
6,O=C(CC1CCCC1)N1CCC(c2noc(-c3ccccn3)n2)CC1,6.76
7,CC(C)(C)C(=O)NCCc1cc2nc(-c3ccncc3)ccn2n1,1.86
8,CN(C)Cc1cnc(C2CCN(C(=O)c3cccc(Cl)c3)C2)[nH]1 (stereo unspecified),-3.59
9,COc1ccccc1CN(C)Cc1ccnc(C2CCCO2)n1 (stereo unspecified),-2.34
10,Cc1noc(C)c1-c1cc(CCC2CN(CCC(N)=O)CCO2)ncn1 (stereo unspecified),-2.2
11,COCCC(=O)N1CCOCC(Cc2ccc3c(ccn3C)c2)C1 (stereo unspecified),-6.26
12,Cc1ccccc1C(=O)N1C[C@@H](O)[C@H](N2CCOCC2)C1,-3.66
13,Cc1cc(N(C)Cc2ncc(-c3ccccc3C(=O)O)s2)ncn1,16.7
14,CC1(C(=O)N2CCOCC2)CN(CC2CCOCC2)CCO1 (stereo unspecified),-0.606
15,c1cc(CN2CCCCC2c2ccc(Nc3cnccn3)nc2)ccn1 (stereo unspecified),-4.05
16,CN1CCN(C(=O)CCn2nnc3ccccc32)CC(C(N)=O)C1 (stereo unspecified),-1.08
17,CNC(=O)C1CN(C(=O)c2ccncc2)CCN(S(C)(=O)=O)C1 (stereo unspecified),22.7
18,Cc1nccc(C2CN(Cc3ccc(-c4ccccc4C(=O)O)o3)C2)n1,-2.56
19,Cc1nc(C(=O)N2CCc3[nH]nc(Nc4ccccc4)c3C2)co1,-1.67
20,Cc1ccnc(C2(C)CCCN2S(=O)(=O)c2cccnc2)n1 (stereo unspecified),-3.08
21,Cc1ccnc(C2(C)CCCN2S(=O)(=O)c2c(C)noc2C)n1 (stereo unspecified),1.94
22,Cc1ccnc(C2CN(Cc3ccc(-c4ccccc4C(=O)O)o3)C2)n1,-0.616
23,O=C(CCn1cccn1)N1CCC(c2nnc(-c3ccccn3)o2)CC1,3.01

row,SMILES,cytotoxicity at 70.5 h [%]
1,O=C(CC1CCCC1)N1CCC(c2nnc(-c3ccccn3)o2)CC1,31.3
2,O=C(c1ccncc1)N1CCc2[nH]nc(Nc3ccccc3)c2C1,21.7
3,Cc1cc(C(F)F)nn1C(C)C(=O)NCc1nccn1C (stereo unspecified),-0.123
4,CC(C)(C)Nc1c(C2CCN(C(=O)C3CC3)CC2)nc2ccccn12,17.8
5,Cn1ncc(Cl)c1C(=O)NCCN1CCC(O)(c2ccc(F)cc2)CC1,5.46
6,O[C@H]1CCN(CCCOc2ccccc2F)C[C@@]12CCCO2,18.1
7,c1cc(C2CCN(c3cncnc3)CC2)ccn1,1.76
8,CC(C)N1CCC(c2cnc(-c3cn[nH]c3)cn2)CC1,2.32
9,O=C1N[C@H]2OCCC[C@H]2[C@H](c2ccc(C(=O)O)cc2)N1,12.6
10,O=C(O)c1ccccc1-n1cc(CN2CCOC(c3cc[nH]n3)C2)cn1 (stereo unspecified),-12.9
11,CCC(=O)N1CCCCC1c1nc(O)c2c(n1)CN(S(C)(=O)=O)CC2 (stereo unspecified),12.1
12,CCC(=O)N1CCCCC1c1nc(O)c2c(n1)CN(C(C)=O)CC2 (stereo unspecified),-2.47
13,Cn1cnc(NC(=O)C2CC(=O)N(c3cccc(F)c3)C2)n1 (stereo unspecified),18.3
14,COc1ccc2c(c1)CC(C1CCOCC1)N(C(=O)c1cnccn1)C2 (stereo unspecified),0.645
15,Cc1cc(C)nc(Nc2cc(C)nc(C3CCN(C(=O)CO)C3)n2)n1 (stereo unspecified),-7.3
16,CCCC(=O)N1CCCCC1c1nc(N(C)C)ncc1-c1cc(C)no1 (stereo unspecified),-2.48
17,Cc1nc(-c2ccc(C(=O)O)cc2)cc(C2CCCN(C(C)C)C2)n1 (stereo unspecified),9.4
18,O=C(O)c1ccccc1-c1ccc(CN2CCCC(O)C2)cc1 (stereo unspecified),-8.74
19,Cc1ncncc1C(=O)N1CCCC(Cc2nccs2)C1 (stereo unspecified),-4.31
20,O=C(c1cccnc1)N1CCCC(Cc2nccs2)C1 (stereo unspecified),-6.74
21,CC(=O)N1C[C@@H](c2ccsc2)[C@@H]2CN(CC3CCCCC3)CC[C@@H]21,-5.59
22,Cc1nc(-c2ccccc2C(=O)O)cc(C2CCN(C(C)C)C2)n1 (stereo unspecified),10.7
23,O=C(NC[C@]1(O)CN(Cc2ccc(F)cc2)C[C@H]1O)c1ccccn1,-6.05

row,SMILES,cytotoxicity at 70.5 h [%]
1,CC(=O)N1C[C@@H](c2ccsc2)[C@@H]2CN(Cc3ccccc3Cl)CC[C@@H]21,-5.99
2,COc1cccc(-c2noc(C3CCN(Cc4ccncc4)C3)n2)c1 (stereo unspecified),-3.26
3,Cc1nccn1-c1nccnc1C1CCN(Cc2ccc(F)cc2)CC1,24.1
4,Cc1cnc(Nc2nccnc2C2CCN(C)CC2)s1,-19.6
5,CN1CCc2nc(C3CCN(C(=O)CCC4CCCC4)CC3)ncc2C1,-16.6
6,CC(=O)Nc1nc(C2CCN(C(C)=O)CC2)cs1,-22
7,CC(=O)N1CCCC(c2ccc(Nc3nc(C)cc(C)n3)cn2)C1 (stereo unspecified),-12
8,O=C(c1cccc(F)c1)N1CCOC(c2nc(-c3ncccn3)no2)C1 (stereo unspecified),-5.4
9,Cc1cc(-c2cnc(NCc3cccnc3)nc2C(C)C)on1,-25.7
10,Cc1cc(-c2cnc(NCc3cccnc3)nc2C(C)(C)C)on1,-18.2
11,Cc1n[nH]c(C)c1-c1cnc(CC2CCN(C)C2)cn1 (stereo unspecified),-17.7
12,Cn1nccc1C(=O)N1CCOC(Cc2cccnc2)C1 (stereo unspecified),16
13,COCC1CCN(c2cc(C3CN(C)CCO3)nc(C)n2)CC1 (stereo unspecified),0.671
14,CC(=O)N1CCCC1c1nccnc1Nc1cccc(C)n1 (stereo unspecified),-16.6
15,CC(C)C(=O)N1CCCC(c2ncncc2-c2ccncc2)C1 (stereo unspecified),13.6
16,Cc1cc(C)cc(-c2cccc(CC3(C(=O)O)CCOCC3)c2)c1,43.6
17,O=C(NCCCN1CCOCC1)Nc1cnc2cc(Cl)ccc2c1O,9.66
18,CC(C)C(=O)N1CCC(c2nc(O)cc(-c3ccncc3)n2)CC1,-15.8
19,Cc1cc(C(=O)N2Cc3ccccc3OC3(CCOCC3)C2)nc(N)n1,-4.81
20,O=C(c1ccco1)N1CCCC(c2cc(C(F)F)n3ncnc3n2)C1 (stereo unspecified),-14.3
21,O=C(c1cncc(Br)c1)N1CCC(O)(Cn2ccc3ccncc32)CC1,-13.2
22,O=C(O)C1(Cc2cc(-c3cccc(F)c3)no2)CCOCC1,-24
23,O=C(c1cnco1)N1C[C@@H]2CC[C@H](Oc3ccccc3F)[C@@H]2C1,40.3

row,SMILES,cytotoxicity at 70.5 h [%]
1,O=C(c1ccnnc1)N1C[C@@H]2CC[C@H](Oc3cccc(F)c3)[C@@H]2C1,-0.575
2,COCCN1C(=O)CO[C@H]2CN(Cc3c[nH]nc3-c3ccccc3)C[C@@H]21,-9.3
3,COc1ccc(CN2CC[C@H](NC(C)=O)[C@@H](O)CC2)c(OC)c1,-17.2
4,Cc1noc(C)c1-c1cncc(C2CCCN2Cc2ccncc2)n1 (stereo unspecified),-16.4
5,NCCn1nc(C2CCN(Cc3ccc(Cl)c(Cl)c3)C2)c2nccnc21 (stereo unspecified),-4.77
6,CNC(=O)C1(CCCc2ccncc2)CCCN1 (stereo unspecified),-7.77
7,CN(C)c1cncc(C2CCN(CCO)CC2)n1,-8.74
8,COc1cc(CN2CC[C@@]3(CCCO3)[C@@H](O)C2)ccc1F,-7.93
9,CN1CCN(C(=O)c2cncc(CC3CCCN(C)C3)c2)CC1 (stereo unspecified),24.9
10,Cc1noc(C)c1-c1cnc(CC2CCN(C(=O)c3cc[nH]n3)C2)cn1 (stereo unspecified),-12
11,Cc1cc(C(F)(F)F)c2c(C3CCN(S(=O)(=O)N(C)C)CC3)noc2n1,-9.87
12,Cc1ncc2c(n1)C1(CCN(C(=O)C(C)C)CC1)OCC2,-6.13
13,Fc1cccc(F)c1Cn1c(C2CCCNC2)cc2cccnc21 (stereo unspecified),-5.53
14,Cc1nc2cc(-c3nccn3C)nn2c(N2CCCC(O)C2)c1C (stereo unspecified),0.494
15,COCCn1c(=O)n(C)c(=O)c2ccc(C3CCC(CN)CC3)nc21 (stereo unspecified),-6.32
16,FC(F)(F)c1nc(C2CCCNC2)no1 (stereo unspecified),-0.742
17,Cc1nc(Cc2ccc(F)cc2)cc(C2COCCN2)n1 (stereo unspecified),2.37
18,Cc1nc(NC2CCCCC2)cc(C2CCCNC2)n1 (stereo unspecified),26.4
19,Cn1ccnc1CNC(=O)c1cnc(C2CCNCC2)cn1,28.1
20,O[C@@H]1CN(Cc2ccc(F)cc2)CC[C@H]1NCc1ccccn1,15.4
21,c1ccc(CNc2cc(C3CCCNC3)ccn2)nc1 (stereo unspecified),20.2
22,COc1cccc(Nc2nc(C3CCCNC3)c3sc(C)c(C)n23)c1 (stereo unspecified),-12
23,COc1cccc(-c2noc(C3CCN(CC4CCCCC4)C3)n2)c1 (stereo unspecified),18.2

row,SMILES,cytotoxicity at 70.5 h [%]
1,CS(=O)(=O)c1cncnc1C1CCCNC1 (stereo unspecified),-8.78
2,Cc1ncsc1C(=O)NCCn1nc(C2CCNC2)c2cccnc21 (stereo unspecified),-14.3
3,COCc1ccc(CN2CCC(O)(Cn3ccc4ncccc43)CC2)o1,-8.64
4,Cc1ccc2c(c1)CN(C(=O)c1ccccc1F)C(CN(C)C)CO2 (stereo unspecified),-24.7
5,CC[C@H](N)Cn1nc(-c2cccs2)oc1=O,-26.2
6,c1cnc2c(c1)cc(C1CCOCC1)n2CCN1CCOCC1,-11.3
7,COc1ccc(OCc2sc(C3(O)CCCNCC3)nc2C)cc1 (stereo unspecified),-10.3
8,CN(C)c1cc(C2CCCNC2)ccn1 (stereo unspecified),4.83
9,NCC(=O)N1CCCC(c2cncc(Nc3ncccn3)n2)C1 (stereo unspecified),-13.9
10,Cc1nc2sccn2c1CNC1(c2ccccc2F)CCCC1,-8.91
11,CN(C)CCCN(Cc1cnn(C)c1)Cc1ccco1,-2.57
12,CCC(CN1CCCC1)NC(=O)C1(c2cccc(F)c2)CC1 (stereo unspecified),-6.19
13,CCN1CCN(Cc2ccnc(-c3cccnc3)n2)CC1,-2.52
14,Cc1ccc(CN(Cc2c[nH]cn2)C2CC(C)(C)NC(C)(C)C2)o1,-9.95
15,O[C@@]1(c2ccccn2)CC[C@H]2CN(Cc3cccc(Cl)c3Cl)C[C@H]21,-10.2
16,COc1ccc(CN2C[C@H]3CC[C@](O)(c4ccc(C)cn4)[C@H]3C2)c(F)c1,-0.817
17,c1cncc(-c2nccc(CN3CCCC3)n2)c1,3.79
18,Cc1ccc([C@]2(O)CC[C@H]3CN(Cc4cccc(Cl)c4Cl)C[C@H]32)nc1,22.9
19,CCN(CC)C(=O)c1cc(C2CCCN2C)ccn1 (stereo unspecified),4.19
